Assay results published in patent US11498899B2, “Nitrone herbicides” (FMC Corporation, priority 2016, dated 2022).

Experiments:
rice (Oryza sativa) = assay: Test B flooded paddy test, visual rating 0-100 (0 no effect, 100 complete control); settings: Flood, 250 g ai/ha, applied to paddy water, rated after 13 to 15 days
[1] = system: ragweed (common ragweed, Ambrosia elatior); assay: Test A preemergence, visual injury rating 0-100; assay type: in vivo
[2] = system: pigweed (Amaranthus retroflexus); assay: Test A preemergence, visual injury rating 0-100; assay type: in vivo
[3] = system: foxtail, giant (giant foxtail, Setaria faberii); assay: Test A preemergence, visual injury rating 0-100; assay type: in vivo
kochia (Kochia scoparia) [4] = assay: Test A preemergence, visual injury rating 0-100; assay type: in vivo
[5] = system: ryegrass, Italian (Italian ryegrass, Lolium multiflorum); assay: Test A preemergence, visual injury rating 0-100; assay type: in vivo
[6] = system: barnyardgrass (Echinochloa crus-galli); assay: Test A preemergence, visual injury rating 0-100 (0 no effect, 100 complete control); assay type: in vivo
[7] = system: ducksalad (Heteranthera limosa); assay: Test B flooded paddy test, visual rating 0-100; settings: Flood, 250 g ai/ha, applied to paddy water, rated after 13 to 15 days
[8] = system: ragweed (common ragweed, Ambrosia elatior); assay: Test A postemergence, visual injury rating 0-100; assay type: in vivo; settings: 0 to 100 scale
[9] = system: pigweed (Amaranthus retroflexus); assay: Test A postemergence, visual injury rating 0-100; assay type: in vivo; settings: 0 to 100 scale
[10] = system: foxtail, giant (giant foxtail, Setaria faberii); assay: Test A postemergence, visual injury rating 0-100; assay type: in vivo; settings: 0 to 100 scale
[11] = system: blackgrass (Alopecurus myosuroides); assay: Test A postemergence, visual injury rating 0-100; assay type: in vivo; settings: 0 to 100 scale
[12] = system: barnyardgrass (Echinochloa crus-galli); assay: Test A postemergence, visual injury rating 0-100; assay type: in vivo; settings: 0 to 100 scale
corn (Zea mays) = assay: Test A postemergence, visual injury rating 0-100; assay type: in vivo; settings: 0 to 100 scale
kochia (Kochia scoparia) [13] = assay: Test A postemergence, visual injury rating 0-100; assay type: in vivo; settings: 0 to 100 scale
[14] = system: wheat (Triticum aestivum); assay: Test A postemergence, visual injury rating 0-100; assay type: in vivo; settings: 0 to 100 scale
[15] = system: ryegrass, Italian (Italian ryegrass, Lolium multiflorum); assay: Test A postemergence, visual injury rating 0-100; assay type: in vivo; settings: 0 to 100 scale
[16] = system: galium (catchweed bedstraw, Galium aparine); assay: Test A postemergence, visual injury rating 0-100; assay type: in vivo; settings: 0 to 100 scale
[17] = system: barnyardgrass (Echinochloa crus-galli); assay: Test B flooded paddy test, visual rating 0-100; settings: Flood, 250 g ai/ha, applied to paddy water, rated after 13 to 15 days

CC1=[N+]([O-])C(C(=O)Nc2cccc(F)c2F)C(c2cc(C)cc(C(F)(F)F)c2)C1 (stereo not shown) [Compound 92]
Rice plant response rating (0 to 100 scale) (rice (Oryza sativa)): 0 | Ragweed plant response rating (0 to 100 scale) ([1]; 125 g ai/ha): 0 | Ragweed plant response rating (0 to 100 scale) ([1]; 500 g ai/ha): 70 | Pigweed plant response rating (0 to 100 scale) ([2]; 125 g ai/ha): 30 | Pigweed plant response rating (0 to 100 scale) ([2]; 500 g ai/ha): 80 | Foxtail, Giant plant response rating (0 to 100 scale) ([3]; 125 g ai/ha): 90 | Foxtail, Giant plant response rating (0 to 100 scale) ([3]; 500 g ai/ha): 90 | Kochia plant response rating (0 to 100 scale) (kochia (Kochia scoparia) [4]; 125 g ai/ha): 0 | Kochia plant response rating (0 to 100 scale) (kochia (Kochia scoparia) [4]; 500 g ai/ha): 50 | Ryegrass, Italian plant response rating (0 to 100 scale) ([5]; 125 g ai/ha): 80 | Ryegrass, Italian plant response rating (0 to 100 scale) ([5]; 500 g ai/ha): 90 | Barnyardgrass plant response rating (0 to 100 scale) ([6]; 125 g ai/ha): 90 | Barnyardgrass plant response rating (0 to 100 scale) ([6]; 500 g ai/ha): 90 | Ducksalad plant response rating (0 to 100 scale) [7]: 25 | Ragweed plant response rating ([8]; 125 g ai/ha): 0 | Ragweed plant response rating ([8]; 500 g ai/ha): 70 | Pigweed plant response rating ([9]; 125 g ai/ha): 20 | Pigweed plant response rating ([9]; 500 g ai/ha): 60 | Foxtail, Giant plant response rating ([10]; 125 g ai/ha): 70 | Foxtail, Giant plant response rating ([10]; 500 g ai/ha): 90 | Blackgrass plant response rating ([11]; 125 g ai/ha): 70 | Blackgrass plant response rating ([11]; 500 g ai/ha): 70 | Barnyardgrass plant response rating ([12]; 125 g ai/ha): 70 | Barnyardgrass plant response rating ([12]; 500 g ai/ha): 90 | Corn plant response rating (corn (Zea mays); 125 g ai/ha): 70 | Corn plant response rating (corn (Zea mays); 500 g ai/ha): 80 | Kochia plant response rating (kochia (Kochia scoparia) [13]; 125 g ai/ha): 30 | Kochia plant response rating (kochia (Kochia scoparia) [13]; 500 g ai/ha): 70 | Wheat plant response rating ([14]; 125 g ai/ha): 70 | Wheat plant response rating ([14]; 500 g ai/ha): 80 | Ryegrass, Italian plant response rating ([15]; 125 g ai/ha): 60 | Ryegrass, Italian plant response rating ([15]; 500 g ai/ha): 70 | Galium plant response rating ([16]; 125 g ai/ha): 50 | Galium plant response rating ([16]; 500 g ai/ha): 60 | Barnyardgrass plant response rating (0 to 100 scale) [17]: 70

CC1=[N+]([O-])C(C(=O)Nc2cccc(F)c2F)C(c2cc(C)cc(Cl)c2)C1 (stereo not shown) [Compound 94]
Rice plant response rating (0 to 100 scale) (rice (Oryza sativa)): 0 | Ragweed plant response rating (0 to 100 scale) ([1]; 125 g ai/ha): 30 | Ragweed plant response rating (0 to 100 scale) ([1]; 500 g ai/ha): 90 | Pigweed plant response rating (0 to 100 scale) ([2]; 125 g ai/ha): 20 | Pigweed plant response rating (0 to 100 scale) ([2]; 500 g ai/ha): 80 | Foxtail, Giant plant response rating (0 to 100 scale) ([3]; 125 g ai/ha): 90 | Foxtail, Giant plant response rating (0 to 100 scale) ([3]; 500 g ai/ha): 90 | Kochia plant response rating (0 to 100 scale) (kochia (Kochia scoparia) [4]; 125 g ai/ha): 10 | Kochia plant response rating (0 to 100 scale) (kochia (Kochia scoparia) [4]; 500 g ai/ha): 60 | Ryegrass, Italian plant response rating (0 to 100 scale) ([5]; 125 g ai/ha): 60 | Ryegrass, Italian plant response rating (0 to 100 scale) ([5]; 500 g ai/ha): 80 | Barnyardgrass plant response rating (0 to 100 scale) ([6]; 125 g ai/ha): 90 | Barnyardgrass plant response rating (0 to 100 scale) ([6]; 500 g ai/ha): 90 | Ducksalad plant response rating (0 to 100 scale) [7]: 100 | Ragweed plant response rating ([8]; 125 g ai/ha): 20 | Ragweed plant response rating ([8]; 500 g ai/ha): 70 | Pigweed plant response rating ([9]; 125 g ai/ha): 20 | Pigweed plant response rating ([9]; 500 g ai/ha): 70 | Foxtail, Giant plant response rating ([10]; 125 g ai/ha): 80 | Foxtail, Giant plant response rating ([10]; 500 g ai/ha): 90 | Blackgrass plant response rating ([11]; 125 g ai/ha): 70 | Blackgrass plant response rating ([11]; 500 g ai/ha): 90 | Barnyardgrass plant response rating ([12]; 125 g ai/ha): 80 | Barnyardgrass plant response rating ([12]; 500 g ai/ha): 90 | Corn plant response rating (corn (Zea mays); 125 g ai/ha): 70 | Corn plant response rating (corn (Zea mays); 500 g ai/ha): 80 | Kochia plant response rating (kochia (Kochia scoparia) [13]; 125 g ai/ha): 20 | Kochia plant response rating (kochia (Kochia scoparia) [13]; 500 g ai/ha): 30 | Wheat plant response rating ([14]; 125 g ai/ha): 40 | Wheat plant response rating ([14]; 500 g ai/ha): 80 | Ryegrass, Italian plant response rating ([15]; 125 g ai/ha): 60 | Ryegrass, Italian plant response rating ([15]; 500 g ai/ha): 90 | Galium plant response rating ([16]; 125 g ai/ha): 20 | Galium plant response rating ([16]; 500 g ai/ha): 60 | Barnyardgrass plant response rating (0 to 100 scale) [17]: 60
